Data published in patent US20260262643A1, “HERBICIDAL BENZOXAZINES” (FMC CORPORATION, priority 2022, published 2026).

Columns and labels:
foxtail, giant [1] = assay: Test A preemergence; type: in vivo, Setaria faberi; settings: visual injury after 10 days, 0 to 100 scale, 0 is no effect, 100 is complete control
How it was run: (§1)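 Loam/sand soil; pre-em directed soil spray at planting, post-em spray at 1–2 leaf (2–10 cm). Compound in non-phytotoxic solvent + surfactant. Greenhouse 10 d; visual injury vs untreated, 0 = no effect, 100 = complete control.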

ragweed [2] = assay: Test A preemergence; type: in vivo, Ambrosia artemisiifolia; settings: visual injury after 10 days, 0 to 100 scale, 0 is no effect, 100 is complete control
How it was run: as §1

wheat [3] = assay: Test A preemergence; type: in vivo, Triticum aestivum; settings: visual injury after 10 days, 0 to 100 scale, 0 is no effect, 100 is complete control
How it was run: as §1

ragweed [4] = assay: Test A postemergence; type: in vivo, Ambrosia artemisiifolia; settings: postemergence, 10 days
How it was run: as §1

soybean [5] = assay: Test A postemergence; type: in vivo, Glycine max; settings: 500 g ai/ha, postemergence, 10 days, visual injury, 0 to 100 scale (0 no effect, 100 complete control)
How it was run: as §1

barnyardgrass [6] = assay: Test A preemergence; type: in vivo, Echinochloa crusgalli; settings: visual injury after 10 days, 0 to 100 scale, 0 is no effect, 100 is complete control
Excerpt: (§2) Seeds of plant species selected from barnyardgrass (Echinochloa crusgalli), blackgrass (Alopecurus myosuroides), corn (Zea mays), foxtail, giant (giant foxtail, Setaria faberi), goosegrass (Eleusine indica), kochia (Bassia scoparia), oat, wild (wild oat, Avena fatua), pigweed, palmer (palmer amaranth, palmer pigweed, Amaranthus palmeri), Pigweed, Redroot (redroot pigweed, Amaranthus retroflexus), ragweed (common ragweed, Ambrosia artemisiifolia), ryegrass, Italian (italian ryegrass, Lolium multiflorum), soybean (Glycine max), and wheat (Triticum aestivum) were planted into a blend of loam soil and sand and treated preemergence with a directed soil spray using test chemicals formulated in a non-phytotoxic solvent mixture which included a surfactant. At the same time, plants selected from these crops and weed species and also galium (catchweed bedstraw, Galium aparine) and horseweed (Erigeron canadensis) were planted in pots containing the same blend of loam soil and sand and treated with postemergence applications of test chemicals formulated in the same manner. Plants ranged in height from 2 to 10 cm and were in the one- to two-leaf stage for the postemergence treatment. Treated plants and untreated controls were maintained in a greenhouse for 10 days, after which time all treated plants were compared to untreated controls and visually evaluated for injury. Plant response ratings, summarized in Table A, are based on a 0 to 100 scale where 0 is no effect and 100 is complete control. A dash (-) response means no test result.

galium = assay: Test A postemergence; type: in vivo, Galium aparine; settings: postemergence, 10 days
How it was run: as §1

wheat [7] = assay: Test A postemergence; type: in vivo, Triticum aestivum; settings: postemergence, 10 days
How it was run: as §1

pigweed, palmer [8] = assay: Test A preemergence; type: in vivo, Amaranthus palmeri; settings: visual injury after 10 days, 0 to 100 scale, 0 is no effect, 100 is complete control
How it was run: as §1

barnyardgrass [9] = assay: Test B flooded paddy test; type: in vivo, Echinochloa crus-galli; settings: 250 g ai/ha, Flood, 13 days, 0 to 100 scale (0 no effect, 100 complete control)
How it was run: (§3)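 Compound is introduced into paddy water covering soil by 3 cm, treating plants that have reached two leaves. Pots are kept flooded at that depth under greenhouse conditions. Assessment at 13 days gives a 0–100 visual control score.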

kochia [10] = assay: Test A postemergence; type: in vivo, Bassia scoparia; settings: postemergence, 10 days
How it was run: as §1

rice = assay: Test B flooded paddy test; type: in vivo, Oryza sativa; settings: 250 g ai/ha, Flood, 13 days, 0 to 100 scale (0 no effect, 100 complete control)
How it was run: as §3

pigweed, palmer [11] = assay: Test A postemergence; type: in vivo, Amaranthus palmeri; settings: postemergence, 10 days
How it was run: as §1

soybean [12] = assay: Test A preemergence; type: in vivo, Glycine max; settings: visual injury after 10 days, 0 to 100 scale, 0 is no effect, 100 is complete control
How it was run: as §1

ryegrass, Italian [13] = assay: Test A preemergence; type: in vivo, Lolium multiflorum; settings: visual injury after 10 days, 0 to 100 scale, 0 is no effect, 100 is complete control
How it was run: as §1

oat, wild [14] = assay: Test A postemergence; type: in vivo, Avena fatua; settings: postemergence, 10 days
How it was run: as §1

sedge, umbrella = assay: Test B flooded paddy test; type: in vivo, Cyperus difformis; settings: 250 g ai/ha, Flood, 13 days, 0 to 100 scale (0 no effect, 100 complete control)
How it was run: as §3

blackgrass [15] = assay: Test A preemergence; type: in vivo, Alopecurus myosuroides; settings: visual injury after 10 days, 0 to 100 scale, 0 is no effect, 100 is complete control
How it was run: as §1

barnyardgrass [16] = assay: Test A postemergence; type: in vivo, Echinochloa crusgalli; settings: postemergence, 10 days
Excerpt: as §2

oat, wild [17] = assay: Test A preemergence; type: in vivo, Avena fatua; settings: visual injury after 10 days, 0 to 100 scale, 0 is no effect, 100 is complete control
How it was run: as §1

blackgrass [18] = assay: Test A postemergence; type: in vivo, Alopecurus myosuroides; settings: postemergence, 10 days
How it was run: as §1

corn [19] = assay: Test A postemergence; type: in vivo, Zea mays; settings: postemergence, 10 days
How it was run: as §1

ducksalad = assay: Test B flooded paddy test; type: in vivo, Heteranthera limosa; settings: 250 g ai/ha, Flood, 13 days, 0 to 100 scale (0 no effect, 100 complete control)
How it was run: as §3

foxtail, giant [20] = assay: Test A postemergence; type: in vivo, Setaria faberi; settings: postemergence, 10 days
How it was run: as §1

corn [21] = assay: Test A preemergence; type: in vivo, Zea mays; settings: visual injury after 10 days, 0 to 100 scale, 0 is no effect, 100 is complete control
How it was run: as §1

kochia [22] = assay: Test A preemergence; type: in vivo, Bassia scoparia; settings: visual injury after 10 days, 0 to 100 scale, 0 is no effect, 100 is complete control
How it was run: as §1

ryegrass, Italian [23] = assay: Test A postemergence; type: in vivo, Lolium multiflorum; settings: postemergence, 10 days
How it was run: as §1

horseweed = assay: Test A postemergence; type: in vivo, Erigeron canadensis; settings: postemergence, 10 days
How it was run: as §1

[24] = 125 g ai/ha, 0 to 100 scale, 0 no effect, 100 complete control
[25] = 500 g ai/ha, visual injury, 0 to 100 scale (0 no effect, 100 complete control)

C=CCOc1ccc(-n2cnc(C(C)C)n2)cc1C(=O)N1C[C@H](C)Oc2c(Cl)cccc21 [Compound 110]
0: Plant response rating, Ragweed (ragweed [2]; 125 g ai/ha) | Plant response rating, Rice (rice) | Oat, Wild plant response rating (oat, wild [14]; [24]) | Plant response rating, Oat, Wild (oat, wild [17]; 125 g ai/ha) | Blackgrass plant response rating (blackgrass [18]; [24]) | Plant response rating, Ducksalad (ducksalad) | Plant response rating, Corn (corn [21]; 125 g ai/ha) | Plant response rating, Kochia (kochia [22]; 125 g ai/ha) | Horseweed plant response rating (horseweed; [24]) | Plant response rating, Horseweed (horseweed; [25])
80: Plant response rating, Ryegrass, Italian (ryegrass, Italian [23]; [25])
90: Plant response rating, Foxtail, Giant (foxtail, giant [1]; 125 g ai/ha) | Plant response rating, Barnyardgrass (barnyardgrass [6]; 500 g ai/ha) | Plant response rating, Pigweed, Palmer (pigweed, palmer [8]; 125 g ai/ha) | Plant response rating, Kochia (kochia [10]; [25]) | Plant response rating, Foxtail, Giant (foxtail, giant [20]; [25])
60: Plant response rating, Ragweed (ragweed [4]; [25]) | Plant response rating, Soybean (soybean [12]; 500 g ai/ha)
55: Plant response rating, Barnyardgrass (barnyardgrass [9])
65: Plant response rating, Sedge, Umbrella (sedge, umbrella)
100: Plant response rating, Foxtail, Giant (foxtail, giant [1]; 500 g ai/ha) | Plant response rating, Soybean (soybean [5]) | Galium plant response rating (galium; [24]) | Plant response rating, Galium (galium; [25]) | Plant response rating, Pigweed, Palmer (pigweed, palmer [8]; 500 g ai/ha) | Plant response rating, Ryegrass, Italian (ryegrass, Italian [13]; 500 g ai/ha)
70: Kochia plant response rating (kochia [10]; [24]) | Plant response rating, Ryegrass, Italian (ryegrass, Italian [13]; 125 g ai/ha) | Plant response rating, Blackgrass (blackgrass [15]; 500 g ai/ha)
10: Ragweed plant response rating (ragweed [4]; [24]) | Wheat plant response rating (wheat [7]; [24]) | Corn plant response rating (corn [19]; [24])
40: Plant response rating, Ragweed (ragweed [2]; 500 g ai/ha) | Pigweed, Palmer plant response rating (pigweed, palmer [11]; [24]) | Plant response rating, Soybean (soybean [12]; 125 g ai/ha) | Plant response rating, Blackgrass (blackgrass [15]; 125 g ai/ha) | Foxtail, Giant plant response rating (foxtail, giant [20]; [24])
30: Plant response rating, Wheat (wheat [3]; 500 g ai/ha) | Plant response rating, Oat, Wild (oat, wild [14]; [25])
20: Plant response rating, Wheat (wheat [3]; 125 g ai/ha) | Plant response rating, Wheat (wheat [7]; [25]) | Barnyardgrass plant response rating (barnyardgrass [16]; [24]) | Plant response rating, Kochia (kochia [22]; 500 g ai/ha) | Ryegrass, Italian plant response rating (ryegrass, Italian [23]; [24])
50: Plant response rating, Barnyardgrass (barnyardgrass [6]; 125 g ai/ha) | Plant response rating, Pigweed, Palmer (pigweed, palmer [11]; [25]) | Plant response rating, Barnyardgrass (barnyardgrass [16]; [25]) | Plant response rating, Oat, Wild (oat, wild [17]; 500 g ai/ha) | Plant response rating, Blackgrass (blackgrass [18]; [25]) | Plant response rating, Corn (corn [19]; [25]) | Plant response rating, Corn (corn [21]; 500 g ai/ha)
